Common to all, as to format: cell-based
Common to all, as to details: cation adjusted Mueller-Hinton broth, 35° C., 16-20 hours

In test [1] the test system is Methicillin-resistant Staphylococcus aureus OC 3726 COL. Kind of test: In vitro antibacterial activity, microdilution broth MIC (NCCLS M7-A4), strain C. As for the experimental part:
(§1) Minimum inhibitory concentration (MIC) is an indicator of in vitro antibacterial activity. […] The in vitro antimicrobial activity of representative compounds of the present invention was determined by the microdilution broth method following the test method from the National Committee for Clinical Laboratory Standards (NCCLS). This method is described in the NCCLS Document M7-A4, Vol. 17, No. 2, “Methods for Dilution Antimicrobial Susceptibility Test for Bacteria that Grow Aerobically—Fourth Edition”, which is incorporated herein by reference.
(§2) In this method two-fold serial dilutions of drug in cation adjusted Mueller-Hinton broth were added to wells in microdilution trays. The test organisms were prepared by adjusting the turbidity of actively growing broth cultures so that the final concentration of test organism after it is added to the wells was approximately 5×10^4 CFU/well. Following inoculation of the microdilution trays, the trays were incubated at 35° C. for 16-20 hours and then read. The amount of growth in the wells containing the test compound was compared with the amount of growth in the growth-control wells (no test compound) used in each tray.
(In general: Broth dilution looks for growth in wells or tubes with falling amounts of substance.)

Test [2] concerns Staphylococcus aureus ATCC 29213. The experiment in a line: In vitro antibacterial activity, microdilution broth MIC (NCCLS M7-A4), strain B. As for the experimental part: as §1, §2
The test system of test [3] is Staphylococcus aureus OC4172. The experiment in a line: In vitro antibacterial activity, microdilution broth MIC (NCCLS M7-A4), strain D. As to the method: as §1, §2
Test [4] has as its system Enterococcus faecium OC 3312 vancomycin-resistant. The experiment in a line: In vitro antibacterial activity, microdilution broth MIC (NCCLS M7-A4), strain A. As for the experimental part:
as §1, §2

In brackets after ≈: the same amount, converted by molar mass.

As for `COC1C=COC2(C)Oc3c(C)c(O)c4c(O)c(c(C=NN5CCN(Cc6ccc(-c7ccccc7Cl)o6)CC5)c(O)c4c3C2=O)NC(=O)C(C)=CC=CC(C)C(O)C(C)C(O)C(C)C(OC(C)=O)C1C` (stereo not drawn) [Compound 22], the “MIC (μg/mL) C Strain” value in test [1] was found to be 0.5 µg/mL (≈ 0.5 µM). Further, in test [2], the “MIC (μg/mL) B Strain” value came to 0.5 µg/mL (≈ 0.5 µM). Also, the “MIC (μg/mL) D Strain” value in test [3] worked out at 0.25 µg/mL (≈ 0.25 µM). Also, the “MIC (μg/mL) A Strain” value in test [4] amounted to 0.5 µg/mL (≈ 0.5 µM).
For the compound `COC1C=COC2(C)Oc3c(C)c(O)c4c(O)c(c(C=NN5CCN(Cc6ccc(-c7ccc(Cl)cc7)o6)CC5)c(O)c4c3C2=O)NC(=O)C(C)=CC=CC(C)C(O)C(C)C(O)C(C)C(OC(C)=O)C1C` (stereo not drawn) [Compound 23], in test [1], the “MIC (μg/mL) C Strain” value amounted to 0.25 µg/mL (≈ 0.25 µM). Moreover, the “MIC (μg/mL) B Strain” value in test [2] came to 0.25 µg/mL (≈ 0.25 µM). The “MIC (μg/mL) D Strain” value in test [3] came out at 0.25 µg/mL (≈ 0.25 µM). Also, the “MIC (μg/mL) A Strain” value in test [4] turned out to be 0.5 µg/mL (≈ 0.5 µM).
On to `COC1C=COC2(C)Oc3c(C)c(O)c4c(O)c(c(C=NN5CCN(Cc6cn(-c7ccc(Cl)cc7)nn6)CC5)c(O)c4c3C2=O)NC(=O)C(C)=CC=CC(C)C(O)C(C)C(O)C(C)C(OC(C)=O)C1C` (stereo not drawn) [Compound 24], for which, in test [1], the “MIC (μg/mL) C Strain” value is “≦0.12 μg/mL”. Besides, the “MIC (μg/mL) B Strain” value in test [2] was determined as 0.12 µg/mL (≈ 0.12 µM). Also, the “MIC (μg/mL) D Strain” value in test [3] came out at 0.06 µg/mL (≈ 0.06 µM). In addition, the “MIC (μg/mL) A Strain” value in test [4] worked out at 0.12 µg/mL (≈ 0.12 µM).
Turning to `COC1C=COC2(C)Oc3c(C)c(O)c4c(O)c(c(C=NN5CCN(Cc6noc(-c7ccc(Cl)cc7)n6)CC5)c(O)c4c3C2=O)NC(=O)C(C)=CC=CC(C)C(O)C(C)C(O)C(C)C(OC(C)=O)C1C` (stereo not drawn) [Compound 25], in test [1], the “MIC (μg/mL) C Strain” value worked out at 0.25 µg/mL (≈ 0.25 µM). Further, in test [2], the “MIC (μg/mL) B Strain” value was found to be 0.5 µg/mL (≈ 0.499 µM). Moreover, the “MIC (μg/mL) D Strain” value in test [3] turned out to be 0.25 µg/mL (≈ 0.25 µM). The “MIC (μg/mL) A Strain” value in test [4] came to 0.5 µg/mL (≈ 0.499 µM).
For the compound `COC1C=COC2(C)Oc3c(C)c(O)c4c(O)c(c(C=NN5CCN(CCc6cc(-c7ccc(Cl)cc7)no6)CC5)c(O)c4c3C2=O)NC(=O)C(C)=CC=CC(C)C(O)C(C)C(O)C(C)C(OC(C)=O)C1C` (stereo not drawn) [Compound 26], the “MIC (μg/mL) C Strain” value in test [1] came to 0.25 µg/mL (≈ 0.246 µM). Also, the “MIC (μg/mL) B Strain” value in test [2] was determined as 0.5 µg/mL (≈ 0.493 µM). Further, the “MIC (μg/mL) D Strain” value in test [3] amounted to 0.25 µg/mL (≈ 0.246 µM). Moreover, in test [4], the “MIC (μg/mL) A Strain” value came to 0.5 µg/mL (≈ 0.493 µM).
`COC1C=COC2(C)Oc3c(C)c(O)c4c(O)c(c(C=NN5CCN(CCCc6cc(-c7ccccc7)no6)CC5)c(O)c4c3C2=O)NC(=O)C(C)=CC=CC(C)C(O)C(C)C(O)C(C)C(OC(C)=O)C1C` (stereo not drawn) [Compound 27]: the “MIC (μg/mL) C Strain” value in test [1] worked out at 0.5 µg/mL (≈ 0.503 µM). Moreover, the “MIC (μg/mL) B Strain” value in test [2] was 0.5 µg/mL (≈ 0.503 µM). The “MIC (μg/mL) D Strain” value in test [3] amounted to 0.5 µg/mL (≈ 0.503 µM). The “MIC (μg/mL) A Strain” value in test [4] turned out to be 0.5 µg/mL (≈ 0.503 µM).

The record behind these values is patent publication US20090275594A1, “3-HYDRAZONE PIPERAZINYL RIFAMYCIN DERIVATIVES USEFUL AS ANTIMICROBIAL AGENTS” (priority 2008, published 2009).
